Experimental data: US8609862B2, “Use of an adrenal hormone-modifying agent” (Novartis AG, priority 2010, dated 2013)

Legend:
Rat CYP11B1 = target: T1, Rat CYP11B1 (Rattus norvegicus, UniProt P15393); assay: In vitro rat CYP11B1 assay; assay type: biochemical; settings: V79-4 cell homogenate, 11-deoxycorticosterone to corticosterone, SPA
T1 construct: made in house; host or cells: V79-4 cell line #259 (stably selected with geneticin and hygromycin); sonicated homogenate, 500 x g supernatant
T1 sequence (P15393 25-499): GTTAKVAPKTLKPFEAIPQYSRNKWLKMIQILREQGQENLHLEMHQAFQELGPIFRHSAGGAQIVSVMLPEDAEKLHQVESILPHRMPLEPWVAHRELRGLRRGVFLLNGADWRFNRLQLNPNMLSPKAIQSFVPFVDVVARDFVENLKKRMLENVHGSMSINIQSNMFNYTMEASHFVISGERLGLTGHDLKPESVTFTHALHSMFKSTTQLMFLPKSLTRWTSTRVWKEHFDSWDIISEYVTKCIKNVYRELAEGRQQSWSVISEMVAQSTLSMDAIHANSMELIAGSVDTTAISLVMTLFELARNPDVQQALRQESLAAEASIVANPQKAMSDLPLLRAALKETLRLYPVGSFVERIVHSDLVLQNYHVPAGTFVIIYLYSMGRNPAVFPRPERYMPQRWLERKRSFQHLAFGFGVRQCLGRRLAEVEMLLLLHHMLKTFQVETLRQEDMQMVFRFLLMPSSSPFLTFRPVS
From the text: Complete EDTA-free protease inhibitor tablets were obtained from Roche Applied Science (Indianapolis, Ind.). Dulbecco's modified Eagle medium (DMEM), antibiotic, geneticin, hygromycin, and fetal bovine serum (FBS) were products of Invitrogen (Carlsbad, Calif.). NADPH Regeneration Solution A and Solution B were purchased from BD Biosciences Clontech (Palo Alto, Calif.). Anti-sheep PVT SPA beads and [1,2,6,7-^3H(N)]corticosterone were acquired from Amersham (Piscataway, N.J.) and PerkinElmer (Boston, Mass.), respectively.
For enzyme preparation, #259 cells were seeded in 150 mm dishes in double-selection medium. Following 2 days of growth, cells were washed once with PBS, scraped and collected in PBS, and centrifuged at 1,300 rpm for 6 min. […] The sonication procedure was repeated 3 more times, with a 5 min rest on ice between sonications. The sonicated material was then spun at 500×g for 4 min to remove unbroken cells. The supernatant was brought to a final glycerol concentration of 5%, flash-frozen in liquid nitrogen, and stored at −80° C.
The CYP11B1 assays were performed in 96-well U-bottom non-tissue-culture-treated plates. […] Plates were then centrifuged at 2,400 rpm for 6 min, and 50 μl of supernatant was removed for measurement of corticosterone content by scintillation proximity assay (SPA).
(§1) Measurement of corticosterone was performed using a 96-well plate format. […] Anti-sheep PVT SPA beads (50 μl) were then added to each well and incubated overnight at room temperature prior to counting in a Microbeta plate counter. The amount of corticosterone in each sample was calculated by comparing with a standard curve generated using known quantities of the hormone.
Full concentration-response curves of an inhibitor were performed at least 3 times. The IC50 values were derived using a non-linear least squares curve-fitting program from IDBS XLfit.

Rat CYP11B2 = target: T2, Rat CYP11B2 (Rattus norvegicus, UniProt P30099); assay: In vitro rat CYP11B2 assay; assay type: biochemical; settings: V79-4 cell homogenate, 11-deoxycorticosterone to aldosterone, SPA
T2 construct: made in house; host or cells: V79-4 cell line #305 (stably selected with geneticin and hygromycin); sonicated homogenate, 500 x g supernatant
T2 sequence (P30099 35-510): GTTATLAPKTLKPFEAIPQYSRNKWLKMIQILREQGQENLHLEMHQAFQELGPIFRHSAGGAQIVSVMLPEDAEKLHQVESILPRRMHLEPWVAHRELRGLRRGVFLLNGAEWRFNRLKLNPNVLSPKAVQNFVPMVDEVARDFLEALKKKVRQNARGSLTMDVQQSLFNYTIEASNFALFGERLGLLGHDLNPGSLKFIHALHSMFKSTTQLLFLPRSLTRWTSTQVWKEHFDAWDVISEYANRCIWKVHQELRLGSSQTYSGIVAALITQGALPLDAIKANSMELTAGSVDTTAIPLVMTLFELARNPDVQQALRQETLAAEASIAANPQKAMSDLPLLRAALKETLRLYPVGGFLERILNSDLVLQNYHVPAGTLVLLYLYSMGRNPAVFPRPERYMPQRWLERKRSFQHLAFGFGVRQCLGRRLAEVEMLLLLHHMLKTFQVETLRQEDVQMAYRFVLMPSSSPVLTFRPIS
Description: Following 2 days of growth, cells are washed once with PBS, scraped and collected in PBS, and centrifuged at 1,300 rpm for 6 min. […] The sonication procedure is repeated 3 more times, with a 5 min incubation on ice between sonications. The sonicated material is then spun at 500×g for 4 min to remove unbroken cells. The supernatant is brought to a final glycerol concentration of 5%, flash-frozen in liquid nitrogen, and stored at −80° C.
The CYP11B2 assay is performed in 96-well U-bottom non-tissue-culture-treated plates. […] Plates are then centrifuged at 2,400 rpm for 6 min, and 100 μl of supernatant is removed for measurement of aldosterone content by scintillation proximity assay (SPA).
as §1, with “aldosterone is” for “corticosterone was”, “Anti-mouse” for “Anti-sheep”, “are” for “were”, “for 4 hr” for “overnight”, “aldosterone” for “corticosterone”, “is” for “was”
Full concentration-response curves of an inhibitor are performed at least 3 times. The IC50 values are derived using a non-linear least squares curve-fitting program from DBS XLfit.

CYP11B1 = target: T3, CYP11B1 (Rattus norvegicus, UniProt P15393); assay: In vivo CYP11B1 assay: plasma corticosterone concentration (PCC) in ACTH-infused conscious rats; settings: 10 mg/kg p.o., ACTH infusion
T3 construct: from tissue; host or cells: whole animal: conscious male Sprague-Dawley rats under ACTH infusion (the adrenal gland as site of the enzyme comes from the background, b5)
T3 sequence (P15393 25-499): T1 sequence (P15393 25-499)
Description: (§2) The in vivo effects of compounds on plasma aldosterone concentration (PAC) and plasma glucocorticoid (corticosterone) concentration (PCC) were evaluated in conscious rats.
(§3) Male Sprague-Dawley rats (˜400-600 g body weight) were surgically instrumented with a femoral arterial and venous catheter. The catheters were exteriorized from the lower back through a stainless steel spring and swivel system that enabled the rats to move freely at all times. Rats were allowed at least one week to recover from the surgery before initiating the experiments.
(§4) On the morning of the experiment, a pretreatment blood sample was collected on heparin from the arterial catheter. The blood samples were spun in a refrigerated centrifuge to generate plasma. The plasma was stored frozen at −70° C. until the later measurement of PAC and PCC (by radioimmunoassay). Adrenocorticotropic hormone (ACTH(1-24), referred to herein as ACTH) was then administered as an intravenous (i.v.) bolus (100 ng/kg) followed by a continuous i.v. infusion (30 ng/kg/min) for 9 hours. After one hour of infusion, a baseline (time 0) blood sample was withdrawn from the arterial catheter and processed and stored as described above. The rats were then dosed (typically 0.01 to 100 mg/kg) with the test compound p.o. by oral gavage or parenterally via the arterial catheter (i.a.). Compounds were formulated in an appropriate vehicle (e.g., water (p.o.) or saline (i.a.)) at a physiologically compatible volume (typically 1-2 ml/kg). Additional blood samples were withdrawn at 0.083 (i.a. only), 0.25, 0.5, 1, 2, 3, 4, 5, 6, 7, 8, and 24 hours after dosing with compound and processed and stored as above for later determination of PAC, PCC, and plasma compound concentration (by LC/MS/MS). Oral bioavailability and traditional pharmacokinetic (PK) parameters were estimated from the plasma compound concentrations.
(§5) Based on the plasma compound concentration at each dose, the PK/PD (pharmacodynamic) profiles (reduction of PAC and PCC) of each compound were determined.

CYP11B2 = target: T4, CYP11B2 (Rattus norvegicus, UniProt P30099); assay: In vivo assay: plasma aldosterone concentration (PAC) in ACTH-infused conscious rats; settings: 10 mg/kg p.o., ACTH infusion
T4 construct: from tissue; host or cells: whole animal: conscious male Sprague-Dawley rats under ACTH infusion (the adrenal gland as site of the enzyme comes from the background, b5)
T4 sequence (P30099 35-510): T2 sequence (P30099 35-510)
Description: as §2, §3, §4, §5

adrenal steroidogenesis = assay: Pilot single-blind forced-titration study of hormonal effects in patients with primary hyperaldosteronism; assay type: in vivo, human; settings: oral 0.5 mg twice daily 2 weeks then 1.0 mg twice daily 2 weeks
Description: A pilot, single-blind, forced-titration study was performed to assess the hormonal effects of a compound of formula (I), 4-[(5R)-6,7-dihydro-5H-pyrrolo[1,2-c]imidazol-5-yl]-3-fluororbenzonitrile dihydrogen phosphate, in patients with diagnosed primary hyperaldosteronism. The clinical study was designed, implemented and reported in accordance with the ICH harmonized tripartite guidelines for good clinical practice with applicable local regulations. Each patient participated in a screening/washout period, a 2-week placebo run-in period, a 4-week treatment period, and a 1-week placebo wash-out. The treatment period consisted of the oral administration of compound of formula (I) twice daily at a dose of 0.5 mg for two weeks followed by a dose increase to 1.0 mg twice daily for another 2 weeks. Blood samples were taken at baseline, day 1 and 2, day 8, day 15, day 22, day 29 and 30 (all at predose i.e., 12 h after the last dose), and at the final study day 36. Each sample was assessed for aldosterone and immunoreactive active renin, 11-deoxycorticosterone, cortisol, 11-deoxycortisol and adrenocorticotropin (ACTH) after subjects were at rest for at least 60 minutes to avoid any postural or stress-induced value changes. Plasma aldosterone was measured using a commercially available radioimmunoassay kit (DPC, France). Plasma Active Renin was measured using the two monoclonal antibodies 3E8 and 125I-4G1 in a commercially available immunoradiometric kit (CisBio, France). Plasma 11-deoxycorticosterone, cortisol and 11-deoxycortisol were measured using a standardized LC-MS/MS method. Plasma ACTH was measured using a commercially available immunoradiometric kit (CisBio, France).
Statistical analysis of the pharmacodynamic biomarker were summarized using descriptive statistics as well as graphical and/or regression methods.

SMILES	IC50 (Rat CYP11B1) [nM]	IC50 (Rat CYP11B2) [nM]	% Reduction from baseline PCC t = 1 h (CYP11B1; 1 h after dosing) [%]	% Reduction from baseline PCC 8 h (CYP11B1; 8 h after dosing) [%]	% Reduction from baseline PAC t = 1 h (CYP11B2; 1 h after dosing) [%]	% Reduction from baseline PAC 8 h (CYP11B2; 8 h after dosing) [%]	plasma 11-deoxycorticosterone (P11DOCS) (adrenal steroidogenesis)	plasma 11-deoxycortisol (P11DOC) (adrenal steroidogenesis)	plasma ACTH levels (adrenal steroidogenesis)	plasma active renin level (adrenal steroidogenesis)	plasma aldosterone (adrenal steroidogenesis)	plasma cortisol levels (adrenal steroidogenesis)
N#Cc1ccc([C@H]2CCc3cncn32)c(F)c1 (single isomer, unassigned) [4-(6,7-Dihydro-5H-pyrrolo[1,2-c]imidazol-5-yl)-3-fluorobenzonitrile enantiomer B, 4-(6,7-Dihydro-5H-pyrrolo[1,2-c]imidazol-5-yl)-3-fluorobenzonitrile]	495	110	24	30	65	72						
N#Cc1ccc([C@H]2CCc3cncn32)c(F)c1.O=P(O)(O)O [4-[(5R)-6,7-dihydro-5H-pyrrolo[1,2-c]imidazol-5-yl]-3-fluororbenzonitrile dihydrogen phosphate]							unexpectedly high build-up	accumulation	increased ACTH levels	increased active renin level	potent aldosterone suppression	decreasing cortisol levels
